# US20040258652A1, “Hair treatment compositions and hair after-treatment compositions for protection against damage by chemical treatment and for the repair of already damaged hair comprising as active substances alkylguanidine compounds” (GOLDSCHMIDT AG, priority 2003, published 2004)
# Columns and labels:
# [1] = Force for the extension of individual damaged hairs by 15% before and after treatment (DiaStron Mtt670); parameters: species or system human; settings: hair rinse A with 2.0% by weight of compound, pH 5, 30 min immersion, permanently waved and bleached Euro hair, measured wet, difference of 15% extension forces after and before treatment, at least 30 measurements
# Protocol: Euro hair (hair from Europeans), left natural.
# Preliminary Damage to the Hair
# 1×each permanent waving and bleaching using commercially available products.
# Treatment of the damaged hair:
# The damaged hair was treated with the exemplary formulations.
# For each test formulation, 30 damp individual hairs were measured. The experimental procedure was as follows:
# 1. The predamaged hairs were wetted with water and using the fully automatic device Mtt670 from DiaStron the force was measured which was necessary for 15% extension.
# 2. For recovery, the hairs were immersed for at least 2 h in a water bath.
# 3. The hairs were then immersed for 30 min in the test formulation and then each hair was rinsed for about 7 s under running water.
# 4. The hairs were left overnight (=12 h) to dry in air.
# 5. The force which was necessary in order to extend the treated hair by 15% was again measured as described above, after wetting with water.
# 6. The difference between the 15% extension forces before and after treatment with the test formulation was calculated and used as a measure of the improvement in the mechanical resistivity of the damaged hairs by the alkylguanidine compounds.
# [2] = Determination of the protein loss of predamaged hair (extraction with Na lauryl ether sulfate, UV absorption at 295 nm); parameters: species or system human; settings: hair rinse of Tab. 3 with 2.0% active, pH 5.0, 30 min; predamaged hair (permanently waved and bleached); extraction with 8% Na lauryl ether sulfate 3 h at room temperature; at least three measurements
# From the text: The more severely damaged the hair, e.g., by permanent waving or bleaching, the higher the concentration of water-soluble protein fragments/peptides in the hair which can be extracted with water or surfactants. Extraction with surfactants simulates the washing of the hair by means of a shampoo. Also during hair washing, damaged hair loses more peptides than healthy hair.
# For illustration, the hair was predamaged. For this, the hair was permanently waved and bleached 1×each
# The predamaged strands of hair (weight: about 4 g) were immersed in the test formulation (time of action: 30 min) and then rinsed off for 1 min under running tap water (T=35° C.).
# They were then left to dry in the air for 12 hours.
# Determination of the Protein Loss:
# About 0.5 g of hair+about 15 ml of Na lauryl ether sulfate (8%) were shaken at room temperature for 3 h. The solution was subsequently decanted and centrifuged. The protein concentration of the solution was then determined photometrically by measurement of the UV absorption at 295 nm. A keratin hydrolysate was used as a standard (M=1000, Promois WK-H, Seiwa Kasei).
Compound,Force 15%after force 15%before ([1]; Table 2B) [mN],Force 15%after force 15%before ([1]; Table 2A) [mN],Protein loss [2]
"CC(=O)O.CC(=O)O.N=C(N)NCCCCCCNC(=N)N [hexane-1,6-diguanidinium acetate]",3.45,,
"CC(O)C(=O)O.CCCCCCCCNC(=N)N [HSP A where R^1 = H; R^2 = C8; lactate, octylguanidinium lactate]",3.65,,
"CC(=O)O.CCCCCCCCNC(=N)N [HSP A where R^2 = C8, octylguanidinium acetate]",,3.51,26.8 mg/g of hair
"CC(=O)O.CCCCN(CCCC)C(=N)N [HSP A where R^1 = C4; R^2 = C4; acetate, N,N-dibutylguanidinium acetate]",2.16,,
